Data published in patent US12485178B2, “Bifunctional small molecules to target the selective degradation of circulating proteins” (YALE UNIVERSITY, priority 2018, dated 2025).

Columns and labels:
[1] = biological target: T1, human MIF (Homo sapiens, UniProt P14174); experiment: Trafficking of MIF internalized by HepG2 cells to lysosomes (immunofluorescence colocalization); assay type: cell-based; conditions: 100 nM rhuMIF, 200 nM compound, 12 hours
T1 sequence (P14174 2-115 limits assumed): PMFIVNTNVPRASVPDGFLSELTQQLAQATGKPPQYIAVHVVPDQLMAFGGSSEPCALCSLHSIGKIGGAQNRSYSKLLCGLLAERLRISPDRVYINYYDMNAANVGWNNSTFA
Procedure: In this experiment, cells were incubated with rhuMIF (Cayman) at a concentration of 100 nM with 200 nM MIF-GN3.

[2] = test system: PC3 human prostate cancer cells; experiment: Mouse model of prostate cancer (PC3 engraftment), tumor growth; assay type: in vivo; conditions: nude mice engrafted with PC3 cells, treatment initiated immediately
Text: In this experiment, nude mice were engrafted with PC3 human prostate cancer cells. Treatment was then initiated immediately with either a non-bifunctional MIF inhibitor (3w), an anti-MIF antibody, or MIF-GN3.

[3] = biological target: T1, human MIF; experiment: Depletion of injected human MIF from mice (serum sandwich ELISA); assay type: in vivo, mouse
Procedure: Human MIF has a half-life of approximately 40 minutes in mice. In this experiment, human recombinant MIF (Cayman chemical) was co-injected into mice with an anti-DNP IgG, which was used as an injection positive control. In particular, nude mice were injected with 5 μg recombinant human MIF and 200 μg anti-DNP IgG as an injection control (FIG. 4). MIF-GN3 was then injected at the concentration shown and blood drawn every twenty minutes over the course of two hours. Serum was diluted 1:100 and analyzed for MIF content by sandwich ELISA (biolegend monoclonal anti-MIF and biotinylated anti-MIF antibodies). […] In the mice treated with MIF-GN3, a moderate increase in huMIF levels up to 20 ng/ml was seen, while in mice injected with PBS negative control, serum levels of up to 150 ng/ml were observed, evidencing a substantial decrease in huMIF levels as a consequence of the administration of MIF-GN3.

[4] = biological target: T1, human MIF; experiment: Depletion of human MIF from supernatant of cultured HepG2 cells (sandwich ELISA); assay type: cell-based; conditions: 100 nM huMIF, after 24 hours
Procedure: In an experiment the results of which are presented in FIG. 3, bifunctional molecules were able to deplete human MIF from the supernatant of culture HepG2 cells. Briefly, human MIF (100 nM) was added to cell culture media in the presence of negative control MIF inhibitor 3w as well as bifunctional molecules MIF-NVS-PEGn-GN3, MIF-GN3, MIF-PEGn-Gn3, MIF-AcF3-1, MIF-AcF3-2, and MIF-AcF3-3. All molecules utilized a known MIF-binding ligand. Experiments were performed in 96 well plates (approximate surface area 0.3 cm^2). HepG2 cells were grown to 90% confluency in RPMI media, then washed with PBS (2×) and treated with serum-free media (optimem+0.1% BSA, +Pen/Strep) containing 100 nM huMIF (Cayman Chemical) and compounds (when applicable). Compounds were diluted from 1 mM stock solutions in DMSO. After 24 hours, a sample of the supernatant (2 uL) was collected, diluted 1:100, and analyzed for MIF content by sandwich ELISA (and incubated for 24 hours in the presence or absence of compound). Remaining MIF levels were determined by sandwich ELISA (biolegend monoclonal anti-MIF and biotinylated anti-MIF antibodies). Data represents the average of at least 3 biological replicates, and error bars represent a standard deviation. After 24 hours, up to 95.3% of the MIF had been depleted from cell culture media (in the case of MIF-AcF3-3).

| MIF internalization in lysosomes [1] | serum huMIF levels ([3]; nude mice injected with 5 μg recombinant human MIF, blood drawn over two hours) | MIF depleted from cell culture media [4] | SMILES | tumor growth [2] | depletion of injected human MIF from mice ([3]; nude mice, FIG. 5) |
| --- | --- | --- | --- | --- | --- |
| evidencing internalization in lysosomes | up to 20 ng/ml | – | CC(=O)N[C@H]1[C@H](OCCOCCOCCNC(=O)CCOCC(COCCC(=O)NCCOCCOCCO[C@@H]2O[C@H](CO)[C@H](O)[C@H](O)[C@H]2NC(C)=O)(COCCC(=O)NCCOCCOCCO[C@@H]2O[C@H](CO)[C@H](O)[C@H](O)[C@H]2NC(C)=O)NC(=O)CNC(=O)CCCOc2ccc3nc(-c4cn(-c5ccc(O)c(F)c5)nn4)ccc3c2)O[C@H](CO)[C@H](O)[C@@H]1O [MIF-GN3] | slowing of tumor growth | mediates the depletion of injected human MIF from mice |
| – | – | 95.3% | O=C(CCOCC(COCCC(=O)NCCOCCOCCOCCOC[C@@]12CO[C@@H](O1)[C@H](NC(=O)C(F)(F)F)[C@@H](O)[C@H]2O)(COCCC(=O)NCCOCCOCCOCCOC[C@@]12CO[C@@H](O1)[C@H](NC(=O)C(F)(F)F)[C@@H](O)[C@H]2O)NC(=O)CCCOc1ccc2nc(-c3cn(-c4ccc(O)c(F)c4)nn3)ccc2c1)NCCOCCOCCOCCOC[C@@]12CO[C@@H](O1)[C@H](NC(=O)C(F)(F)F)[C@@H](O)[C@H]2O [MIF-AcF3-3] | – | – |
